Test results reported in PMC8062632, “Structural studies of phosphorylation-dependent interactions between the V2R receptor and arrestin-2” (Nature Communications, 2021).

Legend:
Type in all cases: cell-based
[1] = tested on: V2R-1 (V2R-T347A); assay: FlAsH-BRET recruitment of c-Raf-1 to arrestin2; conditions: HEK293 cells; for ΔBRET ratio, c-Raf-1 recruitment to arrestin2: V2R-1, Argipressin 10 μM, 37 °C, 10 min
Protocol: (§1) The interaction between arrestin2 and c-Raf-1 was measured by the FlAsH-BRET method. […] Data are expressed as relative values of ΔBRET ratio with the mean ± SEM of three independent experiments (n = 3). […] Source data are provided in the Source. Data file.
(§2) After 24 h of transfection, the cells were detached and distributed into 96-well plates at a density of ~25,000 cells per well. After another 24 h incubation at 37 °C, the cells were labeled FlAsH-EDT2 for 40 min at 37 °C and washed twice with Tyrode’s buffer (140 mM NaCl, 2.7 mM KCl, 1 mM CaCl2, 12 mM NaHCO3, 5.6 mM D-glucose, 0.5 mM MgCl2, 0.37 mM NaH2PO4, and 25 mM HEPES, pH = 7.4) and stimulated with or without Argipressin (final concentration of 10 μM) at 37 °C for 10 min Luciferase substrate coelenterazine-h was added at a final concentration of 5 μM before light emissions were recorded using a Mithras LB940 microplate reader (Berthold Technologies) equipped with BRET filter sets. The BRET signal was determined by calculating the ratio of the light intensity emitted by YFP ([…]) over the light intensity emitted by Rluc ([…]). Source data are provided in a Source Data file.

[2] = tested on: V2R-3 (V2R-S357A); assay: FlAsH-BRET recruitment of c-Raf-1 to arrestin2; conditions: HEK293 cells, Argipressin 10 μM, 37 °C, 10 min
Protocol: as §1, §2

[3] = tested on: V2R-4 (V2R-T360A); assay: FlAsH-BRET recruitment of c-Raf-1 to arrestin2; conditions: HEK293 cells, Argipressin 10 μM, 37 °C, 10 min
Protocol: as §1, §2

[4] = tested on: V2R-6-7 (V2R-S363A/S364A); assay: FlAsH-BRET recruitment of c-Raf-1 to arrestin2; conditions: HEK293 cells; for ΔBRET ratio, c-Raf-1 recruitment to arrestin2: V2R-6-7, Argipressin 10 μM, 37 °C, 10 min
Protocol: as §1, §2

[5] = tested on: V2R-WT; assay: FlAsH-BRET recruitment of c-Raf-1 to arrestin2; conditions: HEK293 cells, Argipressin 10 μM, 37 °C, 10 min
Protocol: as §1, §2

[6] = tested on: V2R-1 (V2R-T347A); assay: FlAsH-BRET recruitment of MEK1 to arrestin2; conditions: HEK293 cells; for ΔBRET ratio, MEK1 recruitment to arrestin2: V2R-1, Argipressin 10 μM, 37 °C, 10 min
Protocol: (§3) The blue ball: K357 site in arrestin2; Yellow pentagram: the position of FlAsH labeled in MEK1. […] Data are expressed as ΔBRET ratio relative values and represent the mean ± SEM of three independent experiments (n = 3). […] Source data are provided in the Source Data file.
(§4) 24 h after transfection, the cells were detached and distributed into 96-well plates at a density of ~25,000 cells per well. After another 24 h of incubation at 37 °C, the cells were labeled FlAsH-EDT2 for 40 min at 37 °C and washed twice with Tyrode’s buffer (140 mM NaCl, 2.7 mM KCl, 1 mM CaCl2, 12 mM NaHCO3, 5.6 mM D-glucose, 0.5 mM MgCl2, 0.37 mM NaH2PO4, and 25 mM HEPES, pH = 7.4) and stimulated with or without Argipressin (final concentration of 10 μM) at 37 °C for 10 min Luciferase substrate coelenterazine-h was added at a final concentration of 5 μM before light emissions were recorded using a Mithras LB940 microplate reader (Berthold Technologies) equipped with BRET filter sets. The BRET signal was determined by calculating the ratio of the light intensity emitted by YFP ([…]) over the light intensity emitted by Rluc ([…]). Source data are provided in a Source Data file.

[7] = tested on: V2R-3 (V2R-S357A); assay: FlAsH-BRET recruitment of MEK1 to arrestin2; conditions: HEK293 cells; for ΔBRET ratio, MEK1 recruitment to arrestin2: V2R-3, Argipressin 10 μM, 37 °C, 10 min
Protocol: as §3, §4

[8] = tested on: V2R-4 (V2R-T360A); assay: FlAsH-BRET recruitment of MEK1 to arrestin2; conditions: HEK293 cells; for ΔBRET ratio, MEK1 recruitment to arrestin2: V2R-4, Argipressin 10 μM, 37 °C, 10 min
Protocol: as §3, §4

[9] = tested on: V2R-6-7 (V2R-S363A/S364A); assay: FlAsH-BRET recruitment of MEK1 to arrestin2; conditions: HEK293 cells; for ΔBRET ratio, MEK1 recruitment to arrestin2: V2R-6-7, Argipressin 10 μM, 37 °C, 10 min
Protocol: as §3, §4

[10] = tested on: V2R-WT; assay: FlAsH-BRET recruitment of MEK1 to arrestin2; conditions: HEK293 cells; for ΔBRET ratio, MEK1 recruitment to arrestin2: V2R-WT, Argipressin 10 μM, 37 °C, 10 min
Protocol: as §3, §4

## vasopressin
[1]; T347A mutant of the V2 receptor, in words
  c-Raf-1 recruited to arrestin, compared with wild-type V2 receptor: significantly less
[1]; Data1
  ΔBRET ratio, c-Raf-1 recruitment to arrestin2: 0.006
[1]; Data2
  ΔBRET ratio, c-Raf-1 recruitment to arrestin2: 0.002
[1]; Data3
  ΔBRET ratio, c-Raf-1 recruitment to arrestin2: 0.005
[2]; Data1
  ΔBRET ratio, c-Raf-1 recruitment to arrestin2: 0.005
[2]; Data2
  ΔBRET ratio, c-Raf-1 recruitment to arrestin2: 0.005
[2]; Data3
  ΔBRET ratio, c-Raf-1 recruitment to arrestin2: 0.006
[3]; Data1
  ΔBRET ratio, c-Raf-1 recruitment to arrestin2: 0.001
[3]; Data2
  ΔBRET ratio, c-Raf-1 recruitment to arrestin2: 0.001
[3]; Data3
  ΔBRET ratio, c-Raf-1 recruitment to arrestin2: 0
[4]; S363A-S364A mutations in V2R, in words
  vasopressin-induced interaction between c-Raf-1 and arrestin2: abolished
[4]; Data1
  ΔBRET ratio, c-Raf-1 recruitment to arrestin2: 0
[4]; Data2
  ΔBRET ratio, c-Raf-1 recruitment to arrestin2: 0.001
[4]; Data3
  ΔBRET ratio, c-Raf-1 recruitment to arrestin2: 0
[5]; Data1
  ΔBRET ratio, c-Raf-1 recruitment to arrestin2: 0.014
[5]; Data2
  ΔBRET ratio, c-Raf-1 recruitment to arrestin2: 0.012
[5]; Data3
  ΔBRET ratio, c-Raf-1 recruitment to arrestin2: 0.015
[6]; Data1
  ΔBRET ratio, MEK1 recruitment to arrestin2: 0.008
[6]; Data2
  ΔBRET ratio, MEK1 recruitment to arrestin2: 0.004
[6]; Data3
  ΔBRET ratio, MEK1 recruitment to arrestin2: 0.005
[6]; V2 receptor T347A mutant, in words
  recruitment of MEK1 to arrestin2: significantly increased
[7]; S357A mutation of V2R, in words
  MEK1-arrestin2 association in response to vasopressin stimulation: almost abolished
[7]; Data1
  ΔBRET ratio, MEK1 recruitment to arrestin2: 0
[7]; Data2
  ΔBRET ratio, MEK1 recruitment to arrestin2: 0.001
[7]; Data3
  ΔBRET ratio, MEK1 recruitment to arrestin2: 0.001
[8]; T360A mutation of V2R, in words
  MEK1-arrestin2 association in response to vasopressin stimulation: almost abolished
[8]; Data1
  ΔBRET ratio, MEK1 recruitment to arrestin2: 0
[8]; Data2
  ΔBRET ratio, MEK1 recruitment to arrestin2: -0.002
[8]; Data3
  ΔBRET ratio, MEK1 recruitment to arrestin2: -0.003
[9]; S363A-S364A mutations of V2R, in words
  MEK1-arrestin2 association in response to vasopressin stimulation: almost abolished
[9]; Data1
  ΔBRET ratio, MEK1 recruitment to arrestin2: 0
[9]; Data2
  ΔBRET ratio, MEK1 recruitment to arrestin2: 0.001
[9]; Data3
  ΔBRET ratio, MEK1 recruitment to arrestin2: 0
[10]; Data1
  ΔBRET ratio, MEK1 recruitment to arrestin2: 0.008
[10]; Data2
  ΔBRET ratio, MEK1 recruitment to arrestin2: 0.005
[10]; Data3
  ΔBRET ratio, MEK1 recruitment to arrestin2: 0.008
[10]; wild-type V2 receptor, in words
  recruitment of MEK1 to arrestin2: significantly increased
